The text below walks through data of patent US10421761B2, “Compounds for kinase modulation, and indications therefor” (Plexxikon Inc., priority 2013, dated 2019).

Some results are limits rather than exact numbers.

For experiment [1], the target named is T1, BRAF V600E (Homo sapiens, UniProt P15056, V600E).
T1 construct: purchased Upstate Biotechnology
The experiment is described as follows: BRAF V600E biochemical kinase activity assay (AlphaScreen, biotin-MEK1 substrate). Particulars: BRAF V600E biochemical inhibitory activity. For orientation: Alpha assays give light when donor and acceptor beads are brought close together.

Experiment [2] concerns B9 (HRAS Q61L) cell line. Nature of the experiment: B9 P-ERK cell activation assay (AlphaScreen). The following applies: Mus musculus; P-ERK cell activation, B9; numeric bounds; read-out: Cell activity (EC50 μM) B9_pERK. It is filed as cell-based, mouse. Summed up: (§1)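 Mouse B9 (HRAS-driven skin SCC) or human IPC-298 melanoma cells treated with an 8-point compound titration for one hour at 37° C., then lysed. ERK1/2 phosphorylation at Thr202/Tyr204 read by AlphaScreen with total-ERK and phospho-ERK antibodies.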

The subject of experiment [3] is IPC-298 (NRAS Q61L) cell line. The experiment is described as follows: IPC-298 P-ERK cell activation assay (AlphaScreen). In kind it is cell-based, human. Particulars: Homo sapiens; P-ERK cell activation, IPC-298; numeric bounds; read-out: Cell activity (EC50 μM) IPC-298_P-ERK. The method in brief:
as §1

Experiment [4] has as its system A375 (BRAF V600E) cell line. The experiment is described as follows: A375 P-ERK inhibition assay (AlphaScreen). In kind it is cell-based, human. Particulars: Homo sapiens, A-375; A375_P-ERK. Summed up:
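A375 cells treated with 8-point compound titration for 1 h at 37° C, then lysed. ERK1/2 Thr202/Tyr204 phosphorylation measured by AlphaScreen, using biotinylated total-ERK antibody on donor beads and phospho-specific antibody on acceptor beads.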

T1 sequence (P15056 whole entry V600E): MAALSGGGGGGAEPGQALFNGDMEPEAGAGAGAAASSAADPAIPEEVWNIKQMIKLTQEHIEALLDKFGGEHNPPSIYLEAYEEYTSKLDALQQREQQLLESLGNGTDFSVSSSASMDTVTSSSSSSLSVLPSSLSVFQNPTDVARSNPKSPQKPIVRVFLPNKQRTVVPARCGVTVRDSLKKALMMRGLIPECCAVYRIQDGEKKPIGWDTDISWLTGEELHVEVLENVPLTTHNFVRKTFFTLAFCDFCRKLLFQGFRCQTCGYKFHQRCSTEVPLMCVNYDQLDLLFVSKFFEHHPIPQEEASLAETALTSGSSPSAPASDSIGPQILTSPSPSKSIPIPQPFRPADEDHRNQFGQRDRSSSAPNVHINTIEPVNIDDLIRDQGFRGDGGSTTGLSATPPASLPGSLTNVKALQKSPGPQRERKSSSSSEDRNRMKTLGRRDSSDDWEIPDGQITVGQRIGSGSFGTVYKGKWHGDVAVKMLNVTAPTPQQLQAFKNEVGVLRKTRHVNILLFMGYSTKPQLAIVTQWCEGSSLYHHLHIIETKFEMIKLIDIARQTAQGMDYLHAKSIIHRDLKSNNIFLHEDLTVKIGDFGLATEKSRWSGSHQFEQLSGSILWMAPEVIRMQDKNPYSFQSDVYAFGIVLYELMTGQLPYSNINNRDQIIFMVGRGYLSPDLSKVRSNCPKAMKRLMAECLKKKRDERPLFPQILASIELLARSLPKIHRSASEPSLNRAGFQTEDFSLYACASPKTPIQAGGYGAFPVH

`CC(=O)Nc1ccc(NC(=O)c2c(F)ccc(NS(=O)(=O)N3CCCCC3)c2F)cn1` [P-2033, N-(6-acetamido-3-pyridyl)-2,6-difluoro-3-(1-piperidylsulfonylamino)benzamide]: the results for the half-maximal inhibitory concentration (IC50) in experiment [1] and in experiment [4] were 0.0001 to 1 µM and more than 10 µM, respectively. The EC50 in experiment [2] and in experiment [3] was more than 10 µM in each case.
Turning to `CC(C)Nc1ncnc2[nH]cc(C(=O)c3c(F)ccc(NS(=O)(=O)C4CCCC4)c3F)c12` [P-2040, N-[2,4-difluoro-3-[4-(isopropylamino)-7H-pyrrolo[2,3-d]pyrimidine-5-carbonyl]phenyl]cyclopentanesulfonamide], the IC50 in experiment [1] and in experiment [4] was 0.0001 to 1 µM throughout. In addition, the EC50 in experiment [2] and in experiment [3] was more than 10 µM each time.
As for `CCN(CC)S(=O)(=O)Nc1ccc(F)c(C(=O)c2c[nH]c3nccc(Cl)c23)c1F` [Compound P-2011, 4-chloro-3-[3-(diethylsulfamoylamino)-2,6-difluoro-benzoyl]-1H-pyrrolo[2,3-b]pyridine], the IC50 (commonly the concentration that gives 50% inhibition) in experiment [1] was in the range of 0.0001 to 1 µM; in experiment [4], 1 to 10 µM. Moreover, the EC50 in experiment [2] and in experiment [3] was more than 10 µM in each case.
Consider `CCN(CC)S(=O)(=O)Nc1ccc(F)c(C(=O)c2c[nH]c3ncnc(NC(C)C)c23)c1F` [P-2042, 5-[3-(diethylsulfamoylamino)-2,6-difluoro-benzoyl]-4-(isopropylamino)-7H-pyrrolo[2,3-d]pyrimidine], for which the IC50 in experiment [1] and in experiment [4] was 0.0001 to 1 µM in each case. In addition, the EC50 in experiment [2] and in experiment [3] was more than 10 µM each time.
As for `CC(C)(C)c1nc(-c2cccc(NS(=O)(=O)N3CCCC3)c2F)c(Br)s1` [P-2127, N-[3-(5-bromo-2-tert-butyl-thiazol-4-yl)-2-fluoro-phenyl]pyrrolidine-1-sulfonamide], the half-maximal inhibitory concentration (IC50) in experiment [1] was 0.0001 to 1 µM; in experiment [4], more than 10 µM. In addition, the EC50 in experiment [2] and in experiment [3] was more than 10 µM each time.
`N#Cc1ccnc2[nH]cc(C(=O)c3c(F)ccc(NS(=O)(=O)N4CCCC4)c3F)c12` [P-2019, N-[3-(4-cyano-1H-pyrrolo[2,3-b]pyridine-3-carbonyl)-2,4-difluoro-phenyl]pyrrolidine-1-sulfonamide]: the 50% inhibitory concentration (IC50) in experiment [1] and in experiment [4] was 0.0001 to 1 µM throughout. Further, the EC50 in experiment [2] and in experiment [3] was more than 10 µM throughout.
For `CC(C)Nc1ncnc2[nH]cc(C(=O)c3c(F)ccc(NS(=O)(=O)C(C)C)c3F)c12` [P-2037, N-[2,4-difluoro-3-[4-(isopropylamino)-7H-pyrrolo[2,3-d]pyrimidine-5-carbonyl]phenyl]propane-2-sulfonamide], the IC50 in experiment [1] and in experiment [4] was 0.0001 to 1 µM in each case. For the same molecule, the EC50 in experiment [2] and in experiment [3] was more than 10 µM each time.
In the case of `[2H]C1([2H])N(S(=O)(=O)Nc2cc(Cl)cc(C(=O)c3c[nH]c4ncc(-c5cnc(C6CC6)nc5)cc34)c2F)C([2H])([2H])C([2H])([2H])C1([2H])[2H]` [P-2177, N-[5-chloro-3-[5-(2-cyclopropylpyrimidin-5-yl)-1H-pyrrolo[2,3-b]pyridine-3-carbonyl]-2-fluoro-phenyl]-2,2,3,3,4,4,5,5-octadeuterio-pyrrolidine-1-sulfonamide], the IC50 in experiment [1] and in experiment [4] was 0.0001 to 1 µM in each case. The EC50 in experiment [2] and in experiment [3] was more than 10 µM each time.
For the molecule `O=C(c1c(F)ccc(NS(=O)(=O)C2CCCCC2)c1F)c1c[nH]c2ncnc(NCC3CC3)c12` [P-2049, N-[3-[4-(cyclopropylmethylamino)-7H-pyrrolo[2,3-d]pyrimidine-5-carbonyl]-2,4-difluoro-phenyl]cyclohexanesulfonamide], the half-inhibitory concentration (IC50) in experiment [1] and in experiment [4] was 0.0001 to 1 µM throughout. For the same molecule, the EC50 in experiment [2] and in experiment [3] was more than 10 µM in each case.
Consider `CCN(C)S(=O)(=O)Nc1cccc(C(=O)c2c[nH]c3ncnc(NC4CCOCC4)c23)c1F` [P-2075, 5-[3-[[ethyl(methyl)sulfamoyl]amino]-2-fluoro-benzoyl]-4-(tetrahydropyran-4-ylamino)-7H-pyrrolo[2,3-d]pyrimidine], for which the IC50 in experiment [1] and in experiment [4] was 0.0001 to 1 µM in each case. Moreover, the 50% effective concentration (EC50) in experiment [2] and in experiment [3] was more than 10 µM throughout.
Consider `COc1ccnc2[nH]cc(C(=O)c3c(F)ccc(NS(=O)(=O)C4CCC4)c3F)c12` [Compound P-2010, N-[2,4-difluoro-3-(4-methoxy-1H-pyrrolo[2,3-b]pyridine-3-carbonyl)phenyl]cyclobutanesulfonamide], for which the IC50 in experiment [1] lay in the range of 0.0001 to 1 µM; in experiment [4], 1 to 10 µM. For the same molecule, the 50% effective concentration (EC50) in experiment [2] and in experiment [3] was more than 10 µM in each case.
As to `CCN(C)S(=O)(=O)Nc1cccc(C(=O)c2c[nH]c3ncnc(N[C@@H](C)C4CC4)c23)c1F` [P-2080, 4-[[(1S)-1-cyclopropylethyl]amino]-5-[3-[[ethyl(methyl)sulfamoyl]amino]-2-fluoro-benzoyl]-7H-pyrrolo[2,3-d]pyrimidine], the 50% inhibitory concentration (IC50) in experiment [1] and in experiment [4] was 0.0001 to 1 µM in each case. The concentration for a half-maximal effect (EC50) in experiment [2] and in experiment [3] was more than 10 µM in each case.
As to `O=C(c1cc(C(F)(F)F)cc(NS(=O)(=O)N2CC[C@@H](F)C2)c1F)c1c[nH]c2ncc(-c3cnc(C4CC4)nc3)cc12` [P-2178, (3R)—N-[3-[5-(2-cyclopropylpyrimidin-5-yl)-1H-pyrrolo[2,3-b]pyridine-3-carbonyl]-2-fluoro-5-(trifluoromethyl)phenyl]-3-fluoro-pyrrolidine-1-sulfonamide], the IC50 was 0.0001 to 1 µM in experiment [1] and 1 to 10 µM in experiment [4]. In addition, the concentration giving a half-maximal response (EC50) in experiment [2] and in experiment [3] was more than 10 µM throughout.
In the case of `O=C(c1cccc(NS(=O)(=O)N2CCCC2)c1F)c1c[nH]c2ncnc(NCC(O)CO)c12` (stereo not shown) [P-2096, N-[3-[4-(2,3-dihydroxypropylamino)-7H-pyrrolo[2,3-d]pyrimidine-5-carbonyl]-2-fluoro-phenyl]pyrrolidine-1-sulfonamide], the IC50 was 0.0001 to 1 µM in experiment [1] and more than 10 µM in experiment [4]. In addition, the EC50 in experiment [2] and in experiment [3] was more than 10 µM in each case.
As to `CCN(C)S(=O)(=O)Nc1cccc(C(=O)c2c[nH]c3ncnc(NC4CC4)c23)c1F` [P-2063, 4-(cyclopropylamino)-5-[3-[[ethyl(methyl)sulfamoyl]amino]-2-fluoro-benzoyl]-7H-pyrrolo[2,3-d]pyrimidine], the 50% inhibitory concentration (IC50) in experiment [1] and in experiment [4] was 0.0001 to 1 µM each time. In addition, the half-maximal effective concentration (EC50) in experiment [2] and in experiment [3] was more than 10 µM throughout.
Turning to `O=C(c1cc(Cl)cc(NS(=O)(=O)N2CCCC2)c1F)c1c[nH]c2ncc(-c3cnc(C4CC4)nc3)cc12` [P-2180, N-(5-chloro-3-(5-(2-cyclopropylpyrimidin-5-yl)-1H-pyrrolo[2,3-b]pyridine-3-carbonyl)-2-fluorophenyl)pyrrolidine-1-sulfonamide], the IC50 in experiment [1] was 0.0001 to 1 µM; in experiment [4], less than 1 µM. For the same molecule, the concentration for a half-maximal effect (EC50) in experiment [2] and in experiment [3] was more than 10 µM each time.
Turning to `CCN(C)S(=O)(=O)Nc1cccc(C(=O)c2c[nH]c3ncnc(NC[C@@H]4CCCO4)c23)c1F` [P-2074, 5-[3-[[ethyl(methyl)sulfamoyl]amino]-2-fluoro-benzoyl]-4-[[(2S)-tetrahydrofuran-2-yl]methylamino]-7H-pyrrolo[2,3-d]pyrimidine], the IC50 in experiment [1] and in experiment [4] was 0.0001 to 1 µM each time. The EC50 in experiment [2] and in experiment [3] was more than 10 µM each time.
On to `CCN(C)S(=O)(=O)Nc1cccc(C(=O)c2c[nH]c3ncnc(C4CC4)c23)c1F` [P-2091, 4-cyclopropyl-5-[3-[[ethyl(methyl)sulfamoyl]amino]-2-fluoro-benzoyl]-7H-pyrrolo[2,3-d]pyrimidine], for which the half-maximal inhibitory concentration (IC50) in experiment [1] and in experiment [4] was 0.0001 to 1 µM each time. Besides, the concentration giving a half-maximal response (EC50) in experiment [2] and in experiment [3] was more than 10 µM each time.
`CCN(CC)S(=O)(=O)Nc1ccc(F)c(C(=O)c2c[nH]c3ncnc(NCC4CC4)c23)c1F` [P-2052, 4-(cyclopropylmethylamino)-5-[3-(diethylsulfamoylamino)-2,6-difluoro-benzoyl]-7H-pyrrolo[2,3-d]pyrimidine]: the 50% inhibitory concentration (IC50) in experiment [1] and in experiment [4] was 0.0001 to 1 µM throughout. Moreover, the EC50 in experiment [2] and in experiment [3] was more than 10 µM each time.
For the molecule `O=C(c1cccc(NS(=O)(=O)N2CCCC2)c1F)c1c[nH]c2ncnc(NC3CC3)c12` [P-2070, N-[3-[4-(cyclopropylamino)-7H-pyrrolo[2,3-d]pyrimidine-5-carbonyl]-2-fluoro-phenyl]pyrrolidine-1-sulfonamide], the concentration for half-maximal inhibition (IC50) in experiment [1] and in experiment [4] was 0.0001 to 1 µM throughout. The EC50 in experiment [2] and in experiment [3] was more than 10 µM throughout.
Turning to `Cc1nc2c(-c3sc(C(C)(C)C)nc3-c3cccc(NS(=O)(=O)N4CCCC4)c3F)ncnc2[nH]1` [P-2124, N-[3-[2-tert-butyl-5-(8-methyl-9H-purin-6-yl)thiazol-4-yl]-2-fluoro-phenyl]pyrrolidine-1-sulfonamide], the IC50 in experiment [1] and in experiment [4] was 0.0001 to 1 µM in each case. In addition, the values for the concentration giving a half-maximal response (EC50) in experiment [2] and in experiment [3] were more than 10 µM and more than 1 µM, respectively.
For the molecule `CC(C)(O)CCNc1ncnc2[nH]cc(C(=O)c3cccc(NS(=O)(=O)N4CCCC4)c3F)c12` [P-2108, N-[2-fluoro-3-[4-[(3-hydroxy-3-methyl-butyl)amino]-7H-pyrrolo[2,3-d]pyrimidine-5-carbonyl]phenyl]pyrrolidine-1-sulfonamide], the IC50 in experiment [1] and in experiment [4] was 0.0001 to 1 µM in each case. In addition, the EC50 in experiment [2] and in experiment [3] was more than 10 µM in each case.
